Measured values from patent publication US5696108A, “Protein kinase C inhibitors” (Eli Lilly and Company, priority 1996, dated 1997).
Entries after “also recorded” stand apart in the source; their conditions may differ.

Key:
[1] = from CN1C(=O)C(c2c[nH]c3ccccc23)=C(c2cn(CCCOC(CCI)CO[Si](c3ccccc3)(c3ccccc3)C(C)(C)C)c3ccccc23)C1=O; amine bond; cesium carbonate; DMF; 5.85 mM; 83.0 h
protein kinase C = conditions: literature; cited from earlier work
PKC eta = PKC eta (Homo sapiens, UniProt P24723); experiment: PKC Enzyme Assay, eta isozyme; assay type: biochemical; conditions: Table 2; read-out: Isozymes ED50 eta
PKC eta, sequence (P24723 whole entry): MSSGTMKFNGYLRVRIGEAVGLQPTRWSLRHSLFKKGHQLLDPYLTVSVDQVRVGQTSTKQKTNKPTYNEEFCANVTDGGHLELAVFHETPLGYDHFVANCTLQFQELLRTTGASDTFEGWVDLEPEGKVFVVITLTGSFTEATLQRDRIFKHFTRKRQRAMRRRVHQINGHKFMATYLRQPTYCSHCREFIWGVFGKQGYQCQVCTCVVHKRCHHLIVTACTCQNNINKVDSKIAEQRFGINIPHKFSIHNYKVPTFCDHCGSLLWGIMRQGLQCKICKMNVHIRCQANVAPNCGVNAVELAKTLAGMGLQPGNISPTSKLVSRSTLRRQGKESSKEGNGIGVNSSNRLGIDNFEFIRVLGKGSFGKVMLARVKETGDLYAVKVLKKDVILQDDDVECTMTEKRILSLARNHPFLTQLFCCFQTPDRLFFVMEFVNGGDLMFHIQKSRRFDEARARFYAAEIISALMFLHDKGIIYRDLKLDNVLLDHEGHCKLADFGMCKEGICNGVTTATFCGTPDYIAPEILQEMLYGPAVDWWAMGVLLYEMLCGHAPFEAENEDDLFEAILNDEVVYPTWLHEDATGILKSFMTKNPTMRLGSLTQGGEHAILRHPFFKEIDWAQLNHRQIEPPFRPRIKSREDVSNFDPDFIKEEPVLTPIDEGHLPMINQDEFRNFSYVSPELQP
Procedure: (§1) PKC enzymes=alpha, beta I, beta II, gamma, delta, epsilon, eta and zeta.
(§2) Assay components in a total volume of 250 μL are as follows:
(§3) For all the enzymes either histone type HL (Worthington) or myelin basic protein is used as substrate. The assay is started by addition of protein kinase C enzyme incubated at 30° C. for 10 minutes and stopped by adding 0.5 mL of cold trichloroacetic acid (Amresco) followed by 100 μL of 1 mg/mL bovine serum albumin (Sigma, St. Louis, Mo.). The precipitate is collected by vacuum filtration on glass fiber filters employing a TOMTEC™ filtration system and quantified by counting in a beta scintillation counter.

[2] = biological target: calcium calmodulin dependent protein kinase; experiment: Calcium Calmodulin Dependent Protein Kinase Assay (CAM); assay type: biochemical, rat; conditions: Table 1
Procedure: Calcium Calmodulin Dependent Protein Kinase Assay (CAM)
The reaction is initiated by the addition of calcium calmodulin dependent protein kinase (isolated from rat brain homogenate), incubated at room temperature for 10 minutes and stopped by adding 0.5 mL ice cold trichloroacetic acid (Amresco) followed by 100 μL of 1 mg/mL bovine serum albumin (Sigma, St. Louis, Mo.). The precipitate is collected by vacuum filtration on glass fiber filters and quantified by counting in a beta scintillation counter.
25 μL calmodulin (250 μg/mL)
10 μL DMSO or DMSO/inhibitor

[3] = biological target: T1, cAMP-dependent kinase catalytic subunit (Bos taurus, UniProt P00517); experiment: cAMP-Dependent protein Kinase Catalytic Subunit Assay; assay type: biochemical, bovine; conditions: Table 1
T1 construct: purchased Sigma, St. Louis, Mo; host or cells: bovine heart
Procedure: cAMP-Dependent protein Kinase Catalytic Subunit Assay (PEA) The Assay components are in a total volume of 250 μL: 20 mM HEPES (Sigma, St. Louis, Mo.) buffer pH 7.5, 200 μg/mL histone type HL (Worthington), 10 mM magnesium chloride (Sigma, St. […] The reaction is initiated by addition of bovine heart cAMP-dependent kinase catalytic subunit (Sigma, St. Louis, Mo.), incubated to 30° C. for 10 minutes and stopped by adding 0.5 mL ice cold Trichloroacetic acid (Amresco) followed by 100 μL of 1 mg/mL bovine serum albumin (Sigma). The precipitate is collected by vacuum filtrated on glass fiber filters employing a TOMTEC™ and quantified by counting in a beta scintillation counter. This assay is done identical to the protein kinase C (PKC) enzyme assay except that no phospholipids or diacylglycerol are employed in the assay and the histone substrate is specific for the cAMP-dependent catalytic subunit enzyme.

casein protein kinase II = biological target: T2, casein protein kinase II (Rattus norvegicus, UniProt P19139); experiment: Casein Protein Kinase II Assay (CK-II); assay type: biochemical; conditions: Table 1
T2 construct: isolated from rat brain homogenate; from tissue; host or cells: rat brain homogenate
T2 sequence (P19139 whole entry): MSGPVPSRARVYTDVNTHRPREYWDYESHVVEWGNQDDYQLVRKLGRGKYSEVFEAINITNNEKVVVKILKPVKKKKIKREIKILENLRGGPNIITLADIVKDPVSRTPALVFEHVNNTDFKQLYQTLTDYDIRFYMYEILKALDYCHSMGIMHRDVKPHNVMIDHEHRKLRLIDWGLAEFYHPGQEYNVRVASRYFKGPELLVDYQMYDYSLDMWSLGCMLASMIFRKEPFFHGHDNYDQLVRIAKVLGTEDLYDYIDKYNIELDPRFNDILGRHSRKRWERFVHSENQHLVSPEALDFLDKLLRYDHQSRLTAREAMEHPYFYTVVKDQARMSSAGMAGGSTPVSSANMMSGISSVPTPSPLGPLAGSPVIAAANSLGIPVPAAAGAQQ
T2 sequence (P67874 2-215 partner limits assumed): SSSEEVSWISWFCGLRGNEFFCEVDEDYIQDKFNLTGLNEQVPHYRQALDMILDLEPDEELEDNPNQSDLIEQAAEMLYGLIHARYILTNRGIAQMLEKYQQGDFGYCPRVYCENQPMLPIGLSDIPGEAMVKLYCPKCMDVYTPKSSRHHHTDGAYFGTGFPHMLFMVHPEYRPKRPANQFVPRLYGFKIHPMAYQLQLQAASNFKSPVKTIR
Procedure: Casein Protein Kinase II Assay (CK-II)
The Casein Protein Kinase II Assay is described in Neurochem. […] The assay components are in a total volume of 250 μL: 20 mM Tris-HCl, pH 7.5, 5 mM sodium fluoride, 50 mg/mL Casein (Sigma, St. Louis, Mo.), 10 mM magnesium chloride (Sigma, St. Louis, Mo.), 10 μL DMSO or DMSO/inhibitor and 30 μm (gamma-32P) ATP (DuPont). Initiation of the reaction is performed by addition of casein protein kinase II (isolated from rat brain homogenate), incubated at room temperature for 10 minutes and stopped by the addition of 0.5 mL ice cold Trichloroacetic acid (Amresco) followed by 100 μL of 1 mg/mL bovine serum albumin (Sigma, St. Louis, Mo.). The precipitate is collected by vacuum filtration on glass fiber filters and quantified by counting in a beta scintillation counter.
Assay components in order of addition
10 μL or DMSO or DMSO/inhibitor
25 μL of AT32P in 300 μM magnesium chloride
40 μL of enzyme (undiluted)
Buffer prepared as follows:
(Final volume=3.5 mL: amount of 20 assays)

PKC gamma = PKC gamma (Homo sapiens, UniProt P05129); experiment: PKC Enzyme Assay, gamma isozyme; assay type: biochemical; conditions: Table 2; read-out: Isozymes ED50 γ
Procedure: as §1, §2, §3

src = biological target: T3, src (Homo sapiens, UniProt P12931); experiment: Protein Tyrosine Kinase Assay (src); assay type: biochemical; conditions: Table 1
T3 construct: purchased Onogene Science, Inc. PK02 and PK03
T3 sequence (P12931 whole entry, species assumed): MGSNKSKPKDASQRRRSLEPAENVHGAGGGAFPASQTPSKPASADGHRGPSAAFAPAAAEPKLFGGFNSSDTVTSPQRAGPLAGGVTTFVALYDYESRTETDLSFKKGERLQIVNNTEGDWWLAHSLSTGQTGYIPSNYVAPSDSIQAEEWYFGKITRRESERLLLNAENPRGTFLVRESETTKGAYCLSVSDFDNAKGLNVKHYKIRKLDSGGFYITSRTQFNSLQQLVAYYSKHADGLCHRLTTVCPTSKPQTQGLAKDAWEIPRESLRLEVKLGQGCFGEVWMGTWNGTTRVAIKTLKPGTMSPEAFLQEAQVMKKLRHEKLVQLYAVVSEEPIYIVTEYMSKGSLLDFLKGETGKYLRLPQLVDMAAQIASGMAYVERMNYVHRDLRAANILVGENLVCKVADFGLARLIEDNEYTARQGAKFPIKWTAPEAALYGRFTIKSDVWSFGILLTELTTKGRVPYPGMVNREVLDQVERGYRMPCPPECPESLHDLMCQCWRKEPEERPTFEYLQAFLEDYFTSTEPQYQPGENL
Procedure: Protein Tyrosine Kinase Assay (src)
The Assay components are the following:
4 μL DMSO or DMSO/inhibitor

PKC-β2 = PKC-β2 (Homo sapiens, UniProt P05771); experiment: PKC Enzyme Assay, beta-2 isozyme; assay type: biochemical; conditions: Table 1
PKC-β2, sequence (P05771 1-673 isoform P05771-2): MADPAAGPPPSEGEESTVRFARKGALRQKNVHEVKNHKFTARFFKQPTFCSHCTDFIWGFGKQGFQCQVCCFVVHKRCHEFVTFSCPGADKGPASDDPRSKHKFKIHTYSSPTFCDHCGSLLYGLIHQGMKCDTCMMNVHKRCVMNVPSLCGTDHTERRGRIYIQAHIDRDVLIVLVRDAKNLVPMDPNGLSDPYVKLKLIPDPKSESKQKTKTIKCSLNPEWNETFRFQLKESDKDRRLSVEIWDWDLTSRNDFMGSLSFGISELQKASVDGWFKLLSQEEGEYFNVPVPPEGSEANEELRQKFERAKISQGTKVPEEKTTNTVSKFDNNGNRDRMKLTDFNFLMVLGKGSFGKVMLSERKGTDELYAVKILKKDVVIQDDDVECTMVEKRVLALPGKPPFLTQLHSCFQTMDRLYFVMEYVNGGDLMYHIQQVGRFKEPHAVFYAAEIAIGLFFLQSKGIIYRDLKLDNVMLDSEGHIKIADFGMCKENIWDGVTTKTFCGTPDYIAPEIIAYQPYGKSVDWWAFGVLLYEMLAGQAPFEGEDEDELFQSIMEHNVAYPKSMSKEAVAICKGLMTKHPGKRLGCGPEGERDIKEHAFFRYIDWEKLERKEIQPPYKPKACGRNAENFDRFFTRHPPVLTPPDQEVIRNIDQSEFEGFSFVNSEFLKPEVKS
Procedure: as §1, §2, §3

PKC-β1 = PKC-β1 (Homo sapiens, UniProt P05771); experiment: PKC Enzyme Assay, beta-1 isozyme; assay type: biochemical; conditions: Table 1
PKC-β1, sequence (P05771 whole entry): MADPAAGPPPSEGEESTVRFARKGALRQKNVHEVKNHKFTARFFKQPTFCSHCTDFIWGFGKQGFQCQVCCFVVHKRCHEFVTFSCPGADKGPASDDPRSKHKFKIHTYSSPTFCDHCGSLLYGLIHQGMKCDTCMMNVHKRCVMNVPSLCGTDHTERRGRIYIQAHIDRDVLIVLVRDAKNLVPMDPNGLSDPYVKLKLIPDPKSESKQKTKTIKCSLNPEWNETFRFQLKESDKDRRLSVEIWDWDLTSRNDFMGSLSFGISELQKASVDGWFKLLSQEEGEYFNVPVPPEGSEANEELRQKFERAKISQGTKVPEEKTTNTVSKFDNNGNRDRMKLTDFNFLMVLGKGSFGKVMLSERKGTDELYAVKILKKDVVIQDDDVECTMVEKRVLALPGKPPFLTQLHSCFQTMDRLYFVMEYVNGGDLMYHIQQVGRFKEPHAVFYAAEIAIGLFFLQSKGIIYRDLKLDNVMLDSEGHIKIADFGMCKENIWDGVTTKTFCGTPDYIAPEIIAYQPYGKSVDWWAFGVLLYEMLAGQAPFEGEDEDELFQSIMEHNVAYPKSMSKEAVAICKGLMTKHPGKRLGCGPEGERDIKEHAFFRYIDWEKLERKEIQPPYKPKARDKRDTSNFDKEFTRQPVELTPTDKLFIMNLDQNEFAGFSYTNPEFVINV
Procedure: as §1, §2, §3

PKC-α = PKC-α (Homo sapiens, UniProt P17252); experiment: PKC Enzyme Assay, alpha isozyme; assay type: biochemical; conditions: Table 1
Procedure: as §1, §2, §3

CN1C(=O)C2=C(C1=O)c1cn(c3ccccc13)CCC(CO[Si](c1ccccc1)(c1ccccc1)C(C)(C)C)OCCCn1cc2c2ccccc21 (stereo not drawn)
ring closure, yield of all isomers [1]: 97%

CN(C)CCCn1cc(C2=C(c3c[nH]c4ccccc34)C(=O)NC2=O)c2ccccc21 [3-[1-(3-dimethylaminopropyl)-indol-3-yl]-4-(1H-indol-3-yl)-1H-pyrrole-2,5-dione]
isozyme selectivity (protein kinase C): slight selectivity for the calcium dependent isozymes; also recorded: no difference, or possibly slight selectivity, for alpha over beta-1 and beta-2 isozymes

CN(C)CC1CCn2cc(c3ccccc32)C2=C(C(=O)NC2=O)c2cn(c3ccccc23)CCO1 (stereo not drawn) [Example 5]
IC50 (PKC eta): 0.035 µM
IC50 [2]: 4 µM
IC50 [3]: > 100 µM
IC50 (casein protein kinase II): > 100 µM
IC50 (PKC gamma): 0.23 µM

CC(=O)OCC1CCCn2cc(c3ccccc32)C2=C(C(=O)NC2=O)c2cn(c3ccccc23)CC1 (stereo not drawn) [Example 38, 3,4-[(N,N'-1,1'-(3"-(acetoxy)methylene)-hexane)-bis-(3,3'-indolyl)]-1H-pyrrole-2,5-dione]
IC50 (src): > 100 µM
IC50 (PKC-β2): 0.1 µM
IC50 (PKC-β1): 0.2 µM
IC50 [2]: 9 µM
IC50 [3]: > 100 µM
IC50 (casein protein kinase II): > 100 µM
IC50 (PKC-α): 4 µM

O=C(NCC1CCCn2cc(c3ccccc32)C2=C(C(=O)NC2=O)c2cn(c3ccccc23)CC1)OCc1ccccc1 (stereo not drawn) [Example 39]
IC50 (src): > 100 µM
IC50 (PKC-β2): 0.3 µM
IC50 (PKC-β1): 0.4 µM
IC50 [2]: > 100 µM
IC50 [3]: > 100 µM
IC50 (casein protein kinase II): > 100 µM
IC50 (PKC-α): 31 µM

O=C1NC(=O)C2=C1c1cn(c3ccccc13)CCCCCCCn1cc2c2ccccc21 [Example 42]
IC50 (src): > 100 µM
IC50 (PKC-β2): 0.6 µM
IC50 (PKC-β1): 0.5 µM
IC50 [2]: > 100 µM
IC50 [3]: > 100 µM
IC50 (casein protein kinase II): > 100 µM
IC50 (PKC-α): > 100 µM

NC1CCCn2cc(c3ccccc32)C2=C(C(=O)NC2=O)c2cn(c3ccccc23)CCC1 [Example 45]
IC50 (src): > 125 µM
IC50 (PKC-β2): 0.1 µM
IC50 (PKC-β1): 0.1 µM
IC50 [2]: 39 µM
IC50 [3]: > 100 µM
IC50 (casein protein kinase II): > 100 µM
IC50 (PKC-α): 3 µM

CC(=O)NC1CCCn2cc(c3ccccc32)C2=C(C(=O)NC2=O)c2cn(c3ccccc23)CCC1 [Example 46]
IC50 (src): > 100 µM
IC50 (PKC-β2): 0.04 µM
IC50 (PKC-β1): 0.04 µM
IC50 [2]: 63 µM
IC50 [3]: > 100 µM
IC50 (casein protein kinase II): > 100 µM
IC50 (PKC-α): 3 µM

O=C1NC(=O)C2=C1c1cn(c3ccccc13)CCCC(NCc1ccccc1)CCCn1cc2c2ccccc21 [Example 47]
IC50 (src): > 125 µM
IC50 (PKC-β2): 0.06 µM
IC50 (PKC-β1): 0.07 µM
IC50 [2]: 70 µM
IC50 [3]: > 100 µM
IC50 (casein protein kinase II): > 100 µM
IC50 (PKC-α): 2 µM

O=C1NC(=O)C2=C1c1cn(c3ccccc13)CCCC1(CCCn3cc2c2ccccc23)OCCO1 [Example 48]
IC50 (src): > 100 µM
IC50 (PKC-β2): 0.3 µM
IC50 (PKC-β1): 0.5 µM
IC50 [2]: > 100 µM
IC50 [3]: > 100 µM
IC50 (casein protein kinase II): > 100 µM
IC50 (PKC-α): > 100 µM

O=C1CCCn2cc(c3ccccc32)C2=C(C(=O)NC2=O)c2cn(c3ccccc23)CCC1 [Example 49]
IC50 (src): > 100 µM
IC50 (PKC-β2): 0.4 µM
IC50 (PKC-β1): 0.6 µM
IC50 [2]: > 100 µM
IC50 [3]: > 100 µM
IC50 (casein protein kinase II): > 100 µM
IC50 (PKC-α): 10 µM
